The source of these data is US5912331A, “Process for the preparation of 9-deoxo-9(Z)-hydroxyiminoerythromycin A” (Merck & Co., Inc., priority 1991, dated 1999).

The structures appear in SMILES notation. ≈ marks a conversion by molar mass, not a printed value. Like-named read-outs stand apart in the source and are kept apart here. A value given as a limit tells only on which side of the number the result lay.

In series [1] the test system is Streptococcus pyogenes MB 2874. Put plainly: MIC, liquid turbidimetric microtiter method in brain heart infusion broth. It is filed as cell-based. The following applies: MB2874. The source says: (§1) The antibacterial activity of 9-deoxo-9(Z)-hydroxyiminoerythromycin A (II) against a panel of aerobic Gram positive and negative bacteria is shown in the following Table. The assay employs a liquid turbidimetric microtiter method for determination of the minimum inhibitory concentration (MIC) in brain heart infusion broth. […] The MIC is generally not an absolute value but rather a concentration range that falls within a two-fold dilution limit. Generally twelve two-fold dilutions of the test compound are employed with the initial concentration set at 128 mcg/ml.

Series [2] relates to Staphylococcus epidermidis MB 5414. The description is as above. It is filed as cell-based. The following applies: MB5414.
Source text: as §1

Series [3] has as its system Streptococcus viridans CL 2943. The series is described as above. The following applies: CL2943. The class given is cell-based.
Source text: as §1

Series [4] deals with Enterococcus faecalis MB 5407. The series is described as above. It is filed as cell-based. The following applies: MB5407.
Source text: as §1

Series [5] concerns Steptococcus pneumoniae CL 2883. Described as above. It is filed as cell-based.
Source text: as §1

Series [6] relates to Klebsiella pneumoniae MB4005. The series is described as above. It is filed as cell-based.
Source text: as §1

Series [7] relates to Staphylococcus aureus MB 2865. Described as above. It is filed as cell-based. The following applies: MB2865.
Source text: as §1

In series [8] the test system is Enterococcus faecium MB 5416. The description is as above. It is filed as cell-based. The following applies: MB5416.
Source text: as §1

Series [9] relates to Streptococcus pyogenes MB 5406. The description is as above. The following applies: MB5406. The class given is cell-based.
Source text: as §1

For series [10], the system named is Staphylococcus haemolyticus MB 5412. The description is as above. The class given is cell-based. The following applies: MB5412.
Source text: as §1

The test system of series [11] is Streptococcus agalactiae CL 1343. The description is as above. It is filed as cell-based. The following applies: CL1343.
Source text: as §1

In series [12] the test system is Yersinia enterocoltica CL 1598. The description is as above. It is filed as cell-based. The following applies: CL1598.
Source text: as §1

The subject of series [13] is Escherichia coli MB 4926. The description is as above. It is filed as cell-based. The following applies: MB4926. The source says: (§2) The assay employs a liquid turbidimetric microtiter method for determination of the minimum inhibitory concentration (MIC) in brain heart infusion broth. […] The MIC is generally not an absolute value but rather a concentration range that falls within a two-fold dilution limit.

The subject of series [14] is Escherichia coli MB 2884. The description is as above. The class given is cell-based. The following applies: MB2884.
Source text: as §2

Series [15] relates to Pseudomonas stutzeri MB 1231. The series is described as above. It is filed as cell-based. The following applies: Stutzerimonas stutzeri, MB1231.
Source text: as §2

Series [16] in a line: isomer conversion under the MIC assay conditions. The class given is physicochemical.
Source text: as §1

The subject of series [17] is panel of aerobic Gram positive and negative bacteria. The series can be described thus: antibacterial activity in vitro against a panel of bacteria. It is filed as cell-based.
Source text: as §1

The test system of series [18] is Gram-positive microorganisms, e.g. Staphylococcus aureaus and Streptococcus pyogenes, and certain Gram-negative microorganisms. The series can be described thus: in vivo antibacterial activity, infected mice treated orally or subcutaneously. The source says: Extrapolation of such in vivo tests to support for human utility for macrolide compounds is likewise taught in U.S. Pat. No. 4,518,590, cited above.

Where [19] appears, read: Streptococcus pyogenes MB 2874, brain heart infusion broth, read-out: MIC.
The mark [20] stands for this setting: Staphylococcus epidermidis MB 5414, brain heart infusion broth, read-out: MIC.
[21] abbreviates: Streptococcus viridans CL 2943, brain heart infusion broth, read-out: MIC.
Where [22] appears, read: Enterococcus faecalis MB 5407, brain heart infusion broth, read-out: MIC.
Setting [23] is: Steptococcus pneumoniae CL 2883, brain heart infusion broth, read-out: MIC.
[24] abbreviates: Klebsiella pneumoniae MB4005, brain heart infusion broth, read-out: MIC.
Setting [25] is: Staphylococcus aureus MB 2865, brain heart infusion broth, read-out: MIC.
Setting [26] is: Enterococcus faecium MB 5416, brain heart infusion broth, read-out: MIC.
Setting [27] is: Streptococcus pyogenes MB 5406, brain heart infusion broth, read-out: MIC.
Setting [28] is: Staphylococcus haemolyticus MB 5412, brain heart infusion broth, read-out: MIC.
Where [29] appears, read: Streptococcus agalactiae CL 1343, brain heart infusion broth, read-out: MIC.
The mark [30] stands for this setting: Yersinia enterocoltica CL 1598, brain heart infusion broth, read-out: MIC.

For orientation: MIC means the lowest concentration found to suppress growth. In the case of `CC[C@H]1OC(=O)[C@H](C)[C@@H](O[C@H]2C[C@@](C)(OC)[C@@H](O)[C@H](C)O2)[C@H](C)[C@@H](O[C@@H]2O[C@H](C)C[C@H](N(C)C)[C@H]2O)[C@](C)(O)C[C@@H](C)C(=O)[C@H](C)[C@@H](O)[C@]1(C)O` [(I), Erythromycin A], the MIC is at most 0.06 µg/mL in [1] (Streptococcus pyogenes); 0.12 µg/mL (≈ 0.164 µM) in series [2] (Staphylococcus epidermidis); at most 0.06 µg/mL in [3] (Streptococcus viridans); 1 µg/mL (≈ 1.36 µM) in series [4] (Enterococcus faecalis); at most 0.06 µg/mL in series [5]; 32 µg/mL (≈ 43.6 µM) in series [6] (Klebsiella pneumoniae, MB4005). For the same compound, the MIC in series [7] (Staphylococcus aureus) was 0.25 µg/mL (≈ 0.341 µM); in series [8] (Enterococcus faecium) it was 0.12 µg/mL (≈ 0.164 µM); in series [9] (Streptococcus pyogenes), 16 µg/mL (≈ 21.8 µM); in series [10] (Staphylococcus haemolyticus) it was 0.12 µg/mL (≈ 0.164 µM); in series [11] (Streptococcus agalactiae) it was at most 0.06 µg/mL; in [12] (Yersinia) it was 32 µg/mL (≈ 43.6 µM). Also, the values for the minimal inhibitory concentration (MIC) in series [13], in series [14] and in series [15] were 0.25 µg/mL (≈ 0.341 µM), 16 µg/mL (≈ 21.8 µM) and at most 0.06 µg/mL, respectively.
Consider `CC[C@H]1OC(=O)[C@H](C)[C@@H](O[C@H]2C[C@@](C)(OC)[C@@H](O)[C@H](C)O2)[C@H](C)[C@@H](O[C@@H]2O[C@H](C)C[C@H](N(C)C)[C@H]2O)[C@](C)(O)C[C@@H](C)/C(=N/O)[C@H](C)[C@@H](O)[C@]1(C)O` [(II), 9-Deoxo-9(Z)-hydroxyiminoerythromycin A], for which, in [16], the “conversion of (Z)isomer to (E)isomer” value is recorded as “An undetermined fraction of the (Z)isomer is converting”. In addition, the “activity in vitro (in words)” value in series [17] (MIC panel, compared with (III) and erythromycin A (I)) was “comparable with the activities of the known compounds 9-deoxo-9(E)-hydroxyiminoerythromycin A (III) and erythromycin A (I)”. Moreover, the “in vitro activity against Gram-positive and certain Gram-negative microorganisms” value in [17] (e.g. Staphylococcus aureas, Streptococcus pyogenes, certain Gram-negative cocci) is “exhibits in vitro activity against a variety of Gram-positive microorganisms, e.g. Staphylococcus aureas and Streptococcus pyogenes, and against certain Gram-negative microorganisms”. For the same compound, the minimum inhibitory concentration (MIC) in series [1] (setting [19]) is at most 0.06 µg/mL; in series [2] (setting [20]), 0.12 µg/mL (≈ 0.16 µM); in [3] (setting [21]), at most 0.06 µg/mL; in series [4] (setting [22]), 2 µg/mL (≈ 2.67 µM); in series [5] (setting [23]), at most 0.06 µg/mL; in [6] (setting [24]), 32 µg/mL (≈ 42.7 µM). The MIC is 0.25 µg/mL (≈ 0.334 µM) in series [7] (setting [25]); 0.25 µg/mL (≈ 0.334 µM) in [8] (setting [26]); 32 µg/mL (≈ 42.7 µM) in series [9] (setting [27]); 0.12 µg/mL (≈ 0.16 µM) in [10] (setting [28]); at most 0.06 µg/mL in series [11] (setting [29]); 32 µg/mL (≈ 42.7 µM) in series [12] (setting [30]). The minimum inhibitory concentration (MIC) is 0.5 µg/mL (≈ 0.668 µM) in series [13], 16 µg/mL (≈ 21.4 µM) in [14] and at most 0.06 µg/mL in series [15]. In addition, the “in vivo activity compared with in vitro activity” value in series [18] (as regards susceptible organisms) is “more limited than its in vitro activity”. For the same compound, the in vivo activity result in series [18] (oral and parenteral routes) is “active in vivo versus a variety of Gram-positive microorganisms, e.g. Staphylococcus aureaus and Streptococcus pyogenes, and also certain Gram-negative microorganisms”.
As to `CC[C@H]1OC(=O)[C@H](C)[C@@H](O[C@H]2C[C@@](C)(OC)[C@@H](O)[C@H](C)O2)[C@H](C)[C@@H](O[C@@H]2O[C@H](C)C[C@H](N(C)C)[C@H]2O)[C@](C)(O)C[C@@H](C)/C(=N\O)[C@H](C)[C@@H](O)[C@]1(C)O` [(III), 9-Deoxo-9(E)-hydroxyiminoerythromycin A], the MIC in series [1] (setting [19]) is at most 0.06 µg/mL; in series [2] (setting [20]), 0.12 µg/mL (≈ 0.16 µM); in series [3] (setting [21]) it was at most 0.06 µg/mL; in series [4] (setting [22]) it was 0.5 µg/mL (≈ 0.668 µM); in series [5] (setting [23]), 0.12 µg/mL (≈ 0.16 µM); in series [6] (setting [24]), 32 µg/mL (≈ 42.7 µM). For the same compound, the MIC in [7] (setting [25]) is 0.25 µg/mL (≈ 0.334 µM); in [8] (setting [26]) it was 0.12 µg/mL (≈ 0.16 µM); in series [9] (setting [27]) it was 16 µg/mL (≈ 21.4 µM); in [10] (setting [28]) it was 0.12 µg/mL (≈ 0.16 µM); in [11] (setting [29]) it was at most 0.06 µg/mL; in [12] (setting [30]), 16 µg/mL (≈ 21.4 µM). Also, the MIC was 0.25 µg/mL (≈ 0.334 µM) in [13], 32 µg/mL (≈ 42.7 µM) in series [14] and 1 µg/mL (≈ 1.34 µM) in [15].
